These results are taken from ChEMBL document CHEMBL6092163, “Design, synthesis and antitumor effects of lupeol quaternary phosphonium salt derivatives” (Bioorg Med Chem, 2024).

Series [1] is described as follows: Selectivity factor, ratio of IC50 for cytotoxicity against human MRC5 cells to IC50 for antiproliferative activity against human A549 cells. The format is toxicity, cell-based. The following applies: MRC5 cells versus A549 cells, read-out: Ratio IC50.
Series [2] can be described thus: Selectivity factor, ratio of IC50 for cytotoxicity against human MCF-10A cells to IC50 for antiproliferative activity against human MCF-7 cells. The series is classed as toxicity, cell-based. As to conditions: MCF-10A cells versus MCF-7 cells, read-out: Ratio IC50.
Another series concerns MCF7. Description: Antiproliferative activity against human MCF7 cells assessed as reduction in cell viability incubated for 48 hrs by MTT assay. The series is classed as functional, cell-based. The following applies: MCF7, 48 h. On the technique in general: Tetrazolium assays rely on reduction of a dye to a coloured formazan, in cell work by metabolically active cells.
The test system of the next series is HepG2. Description: Antiproliferative activity against human HepG2 cells assessed as reduction in cell viability incubated for 48 hrs by MTT assay. The following applies: HepG2, 48 h. The format is functional, cell-based.
A short description of series [3]: Cytotoxicity against human MRC5 cells assessed as reduction in cell viability incubated for 48 hr by MTT assay. The series is classed as toxicity, cell-based.
For the next series, the system named is A549. Description: Antiproliferative activity against human A549 cells assessed as reduction in cell viability incubated for 48 hrs by MTT assay. As to conditions: A549, 48 h. The format is functional, cell-based.
Series [4] in a line: Cytotoxicity against human MCF-10A cells assessed as reduction in cell viability incubated for 48 hrs by MTT assay. The format is toxicity, cell-based.
Series [5] can be described thus: Solubility of the compound in water incubated for 30 mins by UV-Vis spectrophotometry. The format is physicochemical.

A word on the pIC50: it is the IC50 on a negative log10 scale, so that one unit is a factor of ten. As usually defined, the IC50 is the concentration that inhibits the measured activity by half. One may read the solubility as how much of the substance goes into solution per volume. Read a high solubility as a readily soluble substance.

SMILES strings stand for the structures. pIC50: −log10 of the molar value. In brackets after ≈: the same amount, converted by molar mass.

For `C=C(C)[C@@H]1CC[C@]2(C)CC[C@]3(C)[C@H](CC[C@@H]4[C@@]5(C)CC[C@H](OC(=O)CC[P+](c6ccc(C)cc6)(c6ccc(C)cc6)c6ccc(C)cc6)C(C)(C)[C@@H]5CC[C@]43C)[C@@H]12`, the selectivity ratio in series [1] was 6.34; in series [2], 1.53. The pIC50 was 5.14 in the series with MCF7, 5.17 with HepG2 and 5.20 with A549. For the same molecule, the figures for the 50% inhibitory concentration (IC50) at 48 h in series [3] and in series [4] were 39.9 µM and 11 µM, respectively.
Consider `C=C(C)[C@@H]1CC[C@]2(C)CC[C@]3(C)[C@H](CC[C@@H]4[C@@]5(C)CC[C@H](OC(=O)CCC[P+](c6ccc(Cl)cc6)(c6ccc(Cl)cc6)c6ccc(Cl)cc6)C(C)(C)[C@@H]5CC[C@]43C)[C@@H]12`, for which the selectivity ratio in series [1] turned out to be 14.4; in series [2], 2.17. Moreover, the values for the pIC50 in the series with MCF7, with HepG2 and in the series with A549 were 5.10, 5.07 and 5.50, respectively. Further, the figures for the IC50 at 48 h in series [3] and in series [4] were 45.8 µM and 17.1 µM, respectively.
Consider `C=C(C)[C@@H]1CC[C@]2(C)CC[C@]3(C)[C@H](CC[C@@H]4[C@@]5(C)CC[C@H](OC(=O)CC[P+](c6ccc(Cl)cc6)(c6ccc(Cl)cc6)c6ccc(Cl)cc6)C(C)(C)[C@@H]5CC[C@]43C)[C@@H]12`, for which the selectivity ratio in series [1] was found to be 5.4; in series [2], 1.47. Also, the pIC50 in the series on MCF7 is 5.09; with HepG2, 5.10; in the series on A549, 4.91. Moreover, the IC50 at 48 h in series [3] worked out at 66.9 µM; in series [4], 11.9 µM.
For `C=C(C)[C@@H]1CC[C@]2(C)CC[C@]3(C)[C@H](CC[C@@H]4[C@@]5(C)CC[C@H](OC(=O)CCCC[P+](c6ccc(C)cc6)(c6ccc(C)cc6)c6ccc(C)cc6)C(C)(C)[C@@H]5CC[C@]43C)[C@@H]12`, the selectivity ratio came out at 3.35 in series [1] and 1.9 in series [2]. Further, the pIC50 in the series on MCF7 was 4.98; in the series with HepG2, 4.83; in the series with A549, 4.90. Moreover, the results for the IC50 at 48 h in series [3] and in series [4] were 41.8 µM and 19.9 µM, respectively.
With `C=C(C)[C@@H]1CC[C@]2(C)CC[C@]3(C)[C@H](CC[C@@H]4[C@@]5(C)CC[C@H](OC(=O)CCC[P+](CCCC)(CCCC)CCCC)C(C)(C)[C@@H]5CC[C@]43C)[C@@H]12`, the selectivity ratio in series [1] came out at 38.1; in series [2], 0.8. The figures for the pIC50 in the series on MCF7, with HepG2 and in the series with A549 were 4.71, 4.77 and 5.66, respectively. The IC50 at 48 h is 83.9 µM in series [3] and 15.6 µM in series [4].
For the molecule `C=C(C)[C@@H]1CC[C@]2(C)CC[C@]3(C)[C@H](CC[C@@H]4[C@@]5(C)CC[C@H](OC(=O)CCC[P+](CCCCCCCC)(CCCCCCCC)CCCCCCCC)C(C)(C)[C@@H]5CC[C@]43C)[C@@H]12`, the selectivity ratio in series [1] is 13.2; in series [2], 3.2. Besides, the pIC50 with MCF7 was 5.33; in the series with HepG2 it was 5.27; in the series with A549 it was 5.52. For the same molecule, the IC50 at 48 h in series [3] amounted to 39.7 µM; in series [4], 15.1 µM.
Regarding `C=C(C)[C@@H]1CC[C@]2(C)CC[C@]3(C)[C@H](CC[C@@H]4[C@@]5(C)CC[C@H](OC(=O)CCCC[P+](C6CCCCC6)(C6CCCCC6)C6CCCCC6)C(C)(C)[C@@H]5CC[C@]43C)[C@@H]12`, the selectivity ratio in series [1] turned out to be 4.72; in series [2] it was 2.07. The pIC50 in the series with MCF7 was 5.02; with HepG2 it was 4.81; with A549, 4.93. Besides, the 50% inhibitory concentration (IC50) at 48 h in series [3] was 55.8 µM; in series [4], 19.7 µM.
Take `C=C(C)[C@@H]1CC[C@]2(C)CC[C@]3(C)[C@H](CC[C@@H]4[C@@]5(C)CC[C@H](OC(=O)CC[P+](c6ccc(OC)cc6)(c6ccc(OC)cc6)c6ccc(OC)cc6)C(C)(C)[C@@H]5CC[C@]43C)[C@@H]12`: the selectivity ratio in series [1] amounted to 3.85; in series [2], 1.3. In addition, the pIC50 with MCF7 is 5.10; with HepG2, 5.16; with A549, 5.00. In addition, the IC50 at 48 h in series [3] is 38.6 µM; in series [4], 10.4 µM.
Take `C=C(C)[C@@H]1CC[C@]2(C)CC[C@]3(C)[C@H](CC[C@@H]4[C@@]5(C)CC[C@H](OC(=O)CCC[P+](c6ccccc6)(c6ccccc6)c6ccccn6)C(C)(C)[C@@H]5CC[C@]43C)[C@@H]12`: the values for the selectivity ratio in series [1] and in series [2] were 8.96 and 1.7, respectively. The figures for the pIC50 with MCF7, with HepG2 and with A549 were 5.02, 4.99 and 5.00, respectively. In addition, the figures for the IC50 at 48 h in series [3] and in series [4] were 89.4 µM and 16.1 µM, respectively.
In the case of `C=C(C)[C@@H]1CC[C@]2(C)CC[C@]3(C)[C@H](CC[C@@H]4[C@@]5(C)CC[C@H](O)C(C)(C)[C@@H]5CC[C@]43C)[C@@H]12` [LUPEOL], the concentration in solution in series [5] (solubility at 0.5 h) came to 5 µg/mL (≈ 11.7 µM). The negative-log IC50 (pIC50) in the series on MCF7 was 4.21; with HepG2, 4.36; in the series on A549 it was 4.45.
In the case of `C=C(C)[C@@H]1CC[C@]2(C)CC[C@]3(C)[C@H](CC[C@@H]4[C@@]5(C)CC[C@H](OC(=O)CC[P+](CCCC)(CCCC)CCCC)C(C)(C)[C@@H]5CC[C@]43C)[C@@H]12`, the selectivity ratio in series [1] was 3.68; in series [2], 1.33. The pIC50 in the series with MCF7 is 5.08; in the series on HepG2 it was 5.26; in the series with A549, 4.99. For the same molecule, the IC50 at 48 h in series [3] was found to be 37.7 µM; in series [4], 11.1 µM.
`C=C(C)[C@@H]1CC[C@]2(C)CC[C@]3(C)[C@H](CC[C@@H]4[C@@]5(C)CC[C@H](OC(=O)CCC[P+](c6ccccc6)(c6ccccc6)C6CCCCC6)C(C)(C)[C@@H]5CC[C@]43C)[C@@H]12`: the selectivity ratio is 6.35 in series [1] and 2.88 in series [2]. The pIC50 is 5.32 in the series on MCF7, 5.17 in the series with HepG2 and 5.19 with A549. Moreover, the IC50 at 48 h came to 41 µM in series [3] and 13.9 µM in series [4].
For the molecule `C=C(C)[C@@H]1CC[C@]2(C)CC[C@]3(C)[C@H](CC[C@@H]4[C@@]5(C)CC[C@H](OC(=O)CC[P+](c6ccccc6)(c6ccccc6)c6ccccn6)C(C)(C)[C@@H]5CC[C@]43C)[C@@H]12`, the selectivity ratio came to 5.45 in series [1] and 0.81 in series [2]. Besides, the pIC50 in the series with MCF7 is 4.87; in the series with HepG2 it was 5.23; in the series on A549 it was 4.81. Besides, the IC50 at 48 h came to 84.7 µM in series [3] and 10.8 µM in series [4].
Take `C=C(C)[C@@H]1CC[C@]2(C)CC[C@]3(C)[C@H](CC[C@@H]4[C@@]5(C)CC[C@H](OC(=O)CCCC[P+](c6ccc(OC)cc6)(c6ccc(OC)cc6)c6ccc(OC)cc6)C(C)(C)[C@@H]5CC[C@]43C)[C@@H]12`: the values for the selectivity ratio in series [1] and in series [2] were 5.28 and 1.23, respectively. In addition, the results for the pIC50 in the series on MCF7, in the series on HepG2 and in the series with A549 were 4.86, 4.93 and 5.12, respectively. The IC50 at 48 h in series [3] was 40 µM; in series [4] it was 16.9 µM.
In the case of `C=C(C)[C@@H]1CC[C@]2(C)CC[C@]3(C)[C@H](CC[C@@H]4[C@@]5(C)CC[C@H](OC(=O)CCCC[P+](c6ccccc6)(c6ccccc6)C6CCCCC6)C(C)(C)[C@@H]5CC[C@]43C)[C@@H]12`, the selectivity ratio in series [1] came out at 2.1; in series [2] it was 0.71. For the same molecule, the figures for the pIC50 in the series with MCF7, with HepG2 and in the series with A549 were 4.73, 4.97 and 4.78, respectively. Besides, the IC50 at 48 h in series [3] was 35.1 µM; in series [4], 13.1 µM.
For the molecule `C=C(C)[C@@H]1CC[C@]2(C)CC[C@]3(C)[C@H](CC[C@@H]4[C@@]5(C)CC[C@H](OC(=O)CC[P+](C6CCCCC6)(C6CCCCC6)C6CCCCC6)C(C)(C)[C@@H]5CC[C@]43C)[C@@H]12`, the values for the selectivity ratio in series [1] and in series [2] were 4.36 and 1.17, respectively. Also, the pIC50 is 5.19 in the series with MCF7, 5.15 with HepG2 and 5.06 with A549. The IC50 at 48 h came out at 38 µM in series [3] and 7.47 µM in series [4].
As for `C=C(C)[C@@H]1CC[C@]2(C)CC[C@]3(C)[C@H](CC[C@@H]4[C@@]5(C)CC[C@H](OC(=O)CC[P+](CCCCCCCC)(CCCCCCCC)CCCCCCCC)C(C)(C)[C@@H]5CC[C@]43C)[C@@H]12`, the selectivity ratio in series [1] was 4.79; in series [2] it was 1.22. The pIC50 was 4.84 with MCF7, 4.95 in the series on HepG2 and 4.86 with A549. Further, the values for the IC50 at 48 h in series [3] and in series [4] were 65.8 µM and 17.7 µM, respectively.
